Laboratory results taken from ChEMBL document CHEMBL6096711, “Discovery of Novel Pyrimidine Derivatives as Human Pin1 Covalent Inhibitors” (ACS Med Chem Lett, 2025).
Where a SMILES comes first, the peptide text is derived from it. [ ]: non-standard residue; d: D form. The star is where a group is joined. NMeF = CN[C@@H](Cc1ccccc1)C(=O)O; Pip = O=C(O)[C@@H]1CCCCN1; ClAc = O=C(CCl)*

Experiments:
[1] = test system: HCT-116; assay: cells; settings: Homo sapiens, HCT-116, 96 h
Description: Antitumor activity against human HCT-116 cells assessed as inhibition of cell growth measured after 96 hrs by MTT assay

[2] = test system: MCF7; assay: cells; settings: Homo sapiens, MCF7, 96 h
Description: Antitumor activity against human MCF7 cells assessed as inhibition of cell growth measured after 96 hrs by MTT assay

[3] = biological target: T1, Peptidyl-prolyl cis-trans isomerase NIMA-interacting 1 (Homo sapiens, UniProt Q13526); assay: Inhibition of human Pin1 extracted from Escherichia coli BL21 (DE3) cells using TAMRA labelled Bth-(D-Thr(PO3H2))-Pip-Nal-NH2 peptide probe as substrate by fluorescence polarization assay
T1 sequence (Q13526 whole entry): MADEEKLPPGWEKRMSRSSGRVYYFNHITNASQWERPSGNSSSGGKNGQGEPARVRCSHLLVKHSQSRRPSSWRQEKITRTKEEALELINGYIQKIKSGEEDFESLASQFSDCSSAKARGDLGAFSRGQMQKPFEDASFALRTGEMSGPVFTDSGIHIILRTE

[4] = biological target: T1, Peptidyl-prolyl cis-trans isomerase NIMA-interacting 1; assay: Inhibition of human Pin1 using Suc-Ala-Glu-Pro-Phe04-nitroanilide as peptide substrate preincubated for 14 hrs followed by substrate addition and measured immediately by chymotrypsin-coupled PPIase assay
[5] = Stability in mouse liver microsomes assessed as half life; type: ADME, Microsome

Row | Structure (SMILES) | IC50 [1] [µM] | IC50 [2] [µM] | IC50 [3] [µM] | IC50 [4] [µM] | half-life [5] [min]
1 | CC(C)(C)CN(C(=O)CCl)C1CCS(=O)(=O)C1 (configuration not stated) | 7.54 | > 100 | 0.12 | 0.12 | –
2 | O=S1(=O)CCC(Nc2nc(Cl)nc(Cl)n2)C1 (configuration not stated) | – | – | 144 | – | –
3 | O=[N+]([O-])c1cnc(Cl)nc1N(Cc1ccc(-c2cccc3ccoc23)s1)C1CCS(=O)(=O)C1 (configuration not stated) | 2.6 | 4.24 | – | – | –
4 | O=[N+]([O-])c1cnc(Cl)nc1N(CC1CCCCC1)C1CCS(=O)(=O)C1 (configuration not stated) | – | – | 101 | – | –
5 | CCOC(=O)[C@H](CCCNC(=N)N)NC(=O)[C@H](Cc1c[nH]c2ccccc12)NC(=O)[C@@H]1CCCCN1C(=O)[C@H](Cc1ccccc1)N(C)C(=O)CCl (ClAc-[NMeF][Pip]WR-OEt) | – | – | – | – | 1.2

Other lines, results leading:

Row | IC50 [1] [µM] | IC50 [2] [µM] | IC50 [3] [µM] | IC50 [4] [µM] | half-life [5] [min] | Structure (SMILES)
6 | 3.35 | 4.95 | – | – | – | O=[N+]([O-])c1cnc(Cl)nc1N(Cc1ccc(-c2ccc3ccccc3c2)s1)C1CCS(=O)(=O)C1 (configuration not stated)
7 | 5.04 | > 100 | – | – | – | O=[N+]([O-])c1cnc(Cl)nc1N(Cc1cccc2ccccc12)C1CCS(=O)(=O)C1 (configuration not stated)
8 | > 100 | 5.26 | – | – | – | O=[N+]([O-])c1cnc(N(Cc2coc3ccccc23)C2CCS(=O)(=O)C2)nc1Cl (configuration not stated)
9 | > 100 | 3.94 | – | – | – | O=[N+]([O-])c1cnc(N(Cc2ccc3ccccc3c2)C2CCS(=O)(=O)C2)nc1Cl (configuration not stated)
